This is an account of results in ChEMBL document CHEMBL6078680, “Improving the Stability and Anti-Infective Activity of Sea Turtle AMPs Using Multiple Structural Modification Strategies” (J Med Chem, 2024).

The source made the active and inactive calls. No cut-off for these calls is given here. Starred links: 1 amine or outer side, 2 acyl side, 3 side chain; linkers in the order of their positions; H or OH if unused. Positions of bridges follow the written chain, without caps; N, C: chain ends. Non-standard residues stand in square brackets, D forms with d. Residues, ends and D or L forms follow the SMILES beside them. X2 = C[C@](CCCCCCCC=[*:3])(N[*:1])C(=O)[*:2]; X1 = C[C@@](CCCCC=[*:3])(N[*:1])C(=O)[*:2]

The nature of data set [1]: Hemolytic activity at human Erythrocyte assessed as hemolysis at 100 microg/ml. Particulars: erythrocytes, at 100 µg/mL, read-out: Activity. The format is toxicity, cell-based.
In data set [2] the test system is Peritoneal macrophage. Briefly: Cytotoxicity against mouse Peritoneal macrophage cells assessed as survival rate at 100 microg/ml. The format is functional. To be noted: read-out: Survival.
Data set [3] relates to HaCaT. Briefly: Cytotoxicity against human HaCaT cells assessed as survival rate at 100 microg/ml. The format is functional. Particulars: read-out: Survival.
Data set [4] concerns Peritoneal macrophage. Briefly: Antiinflammatory activity in mouse Peritoneal macrophage cells assessed as inhibition of LPS-induced TNF-alpha production at 20 microg/ml incubated for 6 hrs by ELISA analysis. The format is functional, cell-based. To be noted: dose 20.0 µg/ml. On the technique in general: In an ELISA, binding on a coated surface is turned into a signal by an enzyme label.

The subject of data set [5] is Peritoneal macrophage. As to the kind of experiment: Antiinflammatory activity in mouse Peritoneal macrophage cells assessed as inhibition of LPS-induced IL-6 production at 20 microg/ml incubated for 6 hrs by ELISA analysis. To be noted: dose 20.0 µg/ml. The format is functional, cell-based.
Data set [6] has as its system Staphylococcus aureus. Briefly: Antimicrobial activity against Staphylococcus aureus CMCC 26003 at 5 times MIC measured at 180 mins. The format is functional, organism-based.
For data set [7], the system named is 4T1. As to the kind of experiment: Cytotoxicity against mouse 4T1 cells assessed as survival rate at 100 microg/ml. The format is functional. To be noted: read-out: Survival.
The test system of data set [8] is Peritoneal macrophage. Briefly: Cytotoxicity against mouse Peritoneal macrophage cells assessed as decrease in cell number at 20 microg/ml. To be noted: dose 20.0 µg/ml. The format is functional, cell-based.
For data set [9], the system named is B16-F10. Briefly: Cytotoxicity against mouse B16-F10 cells assessed as survival rate at 100 microg/ml. Particulars: read-out: Survival. The format is functional.

Turning to `CC[C@H](C)[C@@H]1NC(=O)[C@H](CCCNC(=N)N)NC(=O)[C@H](CO)NC(=O)[C@H](Cc2c[nH]cn2)NC(=O)[C@H](CCCNC(=N)N)NC(=O)[C@H](CC(C)C)NC(=O)[C@H](C(C)C)NC(=O)[C@H](CCCNC(=N)N)NC(=O)CNC(=O)[C@H](CC(C)C)NC(=O)[C@H](CCC(N)=O)NC(=O)[C@H](CCCCN)NC(=O)[C@H](CCCNC(=N)N)NC(=O)[C@H](C(C)C)NC(=O)[C@H](CCCCN)NC(=O)[C@H](CCCCN)NC(=O)[C@H](Cc2ccccc2)NC(=O)[C@@H](N)CSSC[C@@H](C(=O)O)NC(=O)[C@H](Cc2ccccc2)NC(=O)[C@H](CCCNC(=N)N)NC(=O)[C@H](CCSC)NC(=O)[C@H](CCCNC(=N)N)NC(=O)CNC(=O)CNC(=O)[C@H](C(C)C)NC(=O)[C@H]([C@@H](C)O)NC1=O` (H-CFKKVRKQLGRVLRHSRITVGGRMRFC-OH; disulfide 1-27), the hemolysis at 100 microg/ml in data set [1] was < 5%. The viability at 100 µg/mL in data set [2] and in [3] was > 80% each time. In addition, the outcome in data set [4] and in data set [5] was Active. Also, the result in data set [6] was inactive.

Regarding `CC[C@H](C)[C@H](NC(=O)[C@H](CCCNC(=N)N)NC(=O)[C@H](CO)NC(=O)[C@H](Cc1c[nH]cn1)NC(=O)[C@H](CCCNC(=N)N)NC(=O)[C@H](CC(C)C)NC(=O)[C@@H](NC(=O)[C@@H]1CSSC[C@H](NC(=O)[C@@H](NC(=O)[C@H](CCCCN)NC(=O)[C@H](CCCCN)NC(=O)[C@@H](N)Cc2ccccc2)C(C)C)C(=O)N[C@@H](CCCNC(=N)N)C(=O)N[C@@H](CCCCN)C(=O)N[C@@H](CCC(N)=O)C(=O)N[C@@H](CC(C)C)C(=O)NCC(=O)N[C@@H](CCCNC(=N)N)C(=O)N1)C(C)C)C(=O)N[C@H](C(=O)N[C@H](C(=O)NCC(=O)NCC(=O)N[C@@H](CCCNC(=N)N)C(=O)N[C@@H](CCSC)C(=O)N[C@@H](CCCNC(=N)N)C(=O)N[C@@H](Cc1ccccc1)C(=O)O)C(C)C)[C@@H](C)O` (H-FKKVCRKQLGRCVLRHSRITVGGRMRF-OH; disulfide 5-12), the hemolysis at 100 microg/ml in data set [1] is < 5%. Further, the viability at 100 µg/mL in data set [2] and in data set [3] was > 80% throughout. In addition, the outcome in data set [4] and in data set [5] was Active. Moreover, the result in data set [6] was inactive.

For `CC[C@H](C)[C@H](NC(=O)[C@H](CCCNC(=N)N)NC(=O)[C@H](CO)NC(=O)[C@H](Cc1c[nH]cn1)NC(=O)[C@H](CCCNC(=N)N)NC(=O)[C@]1(C)CCCC/C=C\CCCC[C@](C)(NC(=O)[C@H](CCC(N)=O)NC(=O)[C@H](CCCCN)NC(=O)[C@H](CCCNC(=N)N)NC(=O)[C@@H](NC(=O)[C@H](CCCCN)NC(=O)[C@H](CCCCN)NC(=O)[C@@H](N)Cc2ccccc2)C(C)C)C(=O)NCC(=O)N[C@@H](CCCNC(=N)N)C(=O)N[C@@H](C(C)C)C(=O)N1)C(=O)N[C@H](C(=O)N[C@H](C(=O)NCC(=O)NCC(=O)N[C@@H](CCCNC(=N)N)C(=O)N[C@@H](CCSC)C(=O)N[C@@H](CCCNC(=N)N)C(=O)N[C@@H](Cc1ccccc1)C(=O)O)C(C)C)[C@@H](C)O` (H-FKKVRKQ[X1]GRV[X1]RHSRITVGGRMRF-OH; staple (Z) 8-12), the hemolysis at 100 microg/ml in data set [1] was < 5%. Further, the outcome in data set [4] and in data set [5] was Active. In [6], the result was inactive.

`CC[C@H](C)[C@H](NC(=O)[C@H](CCCNC(=N)N)NC(=O)[C@H](CO)NC(=O)[C@H](Cc1c[nH]cn1)NC(=O)[C@]1(C)CCCC/C=C\CCCCCCC[C@@](C)(NC(=O)[C@H](CCCNC(=N)N)NC(=O)[C@@H](NC(=O)[C@H](CCCCN)NC(=O)[C@H](CCCCN)NC(=O)[C@@H](N)Cc2ccccc2)C(C)C)C(=O)N[C@@H](CCC(N)=O)C(=O)N[C@@H](CC(C)C)C(=O)NCC(=O)N[C@@H](CCCNC(=N)N)C(=O)N[C@@H](C(C)C)C(=O)N[C@@H](CC(C)C)C(=O)N1)C(=O)N[C@H](C(=O)N[C@H](C(=O)NCC(=O)NCC(=O)N[C@@H](CCCNC(=N)N)C(=O)N[C@@H](CCSC)C(=O)N[C@@H](CCCNC(=N)N)C(=O)N[C@@H](Cc1ccccc1)C(=O)O)C(C)C)[C@@H](C)O` (H-FKKVR[X2]QLGRVL[X1]HSRITVGGRMRF-OH; staple (Z) 6-13): the hemolysis at 100 microg/ml in data set [1] is < 5%. Also, the result in [4] and in [5] was Active. Further, the outcome in data set [6] was inactive.

In the case of `CC[C@H](C)[C@H](NC(=O)[C@H](CCCNC(=N)N)NC(=O)[C@H](CO)NC(=O)[C@H](Cc1c[nH]cn1)NC(=O)[C@H](CCCNC(=N)N)NC(=O)[C@H](CC(C)C)NC(=O)[C@@H](NC(=O)[C@H](CCCNC(=N)N)NC(=O)CNC(=O)[C@]1(C)CCCC/C=C\CCCC[C@](C)(NC(=O)[C@H](CCCCN)NC(=O)[C@H](CCCCN)NC(=O)[C@@H](N)Cc2ccccc2)C(=O)N[C@@H](CCCNC(=N)N)C(=O)N[C@@H](CCCCN)C(=O)N[C@@H](CCC(N)=O)C(=O)N1)C(C)C)C(=O)N[C@H](C(=O)N[C@H](C(=O)NCC(=O)NCC(=O)N[C@@H](CCCNC(=N)N)C(=O)N[C@@H](CCSC)C(=O)N[C@@H](CCCNC(=N)N)C(=O)N[C@@H](Cc1ccccc1)C(=O)O)C(C)C)[C@@H](C)O` (H-FKK[X1]RKQ[X1]GRVLRHSRITVGGRMRF-OH; staple (Z) 4-8), the hemolysis at 100 microg/ml in data set [1] is < 5%. For the same compound, the result in data set [4] and in data set [5] was Active. For the same compound, in [6], the outcome was inactive.

Regarding `CC[C@H](C)[C@H](NC(=O)[C@H](CCCNC(=N)N)NC(=O)[C@H](CO)NC(=O)[C@H](Cc1c[nH]cn1)NC(=O)[C@H](CCCNC(=N)N)NC(=O)[C@H](CC(C)C)NC(=O)[C@@H](NC(=O)[C@H](CCCNC(=N)N)NC(=O)CNC(=O)[C@H](CC(C)C)NC(=O)[C@H](CCC(N)=O)NC(=O)[C@]1(C)CCCC/C=C\CCCC[C@](C)(NC(=O)[C@@H](N)Cc2ccccc2)C(=O)N[C@@H](CCCCN)C(=O)N[C@@H](C(C)C)C(=O)N[C@@H](CCCNC(=N)N)C(=O)N1)C(C)C)C(=O)N[C@H](C(=O)N[C@H](C(=O)NCC(=O)NCC(=O)N[C@@H](CCCNC(=N)N)C(=O)N[C@@H](CCSC)C(=O)N[C@@H](CCCNC(=N)N)C(=O)N[C@@H](Cc1ccccc1)C(=O)O)C(C)C)[C@@H](C)O` (H-F[X1]KVR[X1]QLGRVLRHSRITVGGRMRF-OH; staple (Z) 2-6), in [1], the hemolysis at 100 microg/ml was < 5%. The outcome in data set [4] and in data set [5] was Active. For the same compound, the result in data set [6] was inactive.

On to `CC[C@H](C)[C@H](NC(=O)[C@H](CCCNC(=N)N)NC(=O)[C@H](CO)NC(=O)[C@H](Cc1c[nH]cn1)NC(=O)[C@H](CCCNC(=N)N)NC(=O)[C@H](CC(C)C)NC(=O)[C@@H](NC(=O)[C@H](CCCNC(=N)N)NC(=O)CNC(=O)[C@]1(C)CCCC/C=C\CCCCCCC[C@@](C)(N)C(=O)N[C@@H](CCCCN)C(=O)N[C@@H](CCCCN)C(=O)N[C@@H](C(C)C)C(=O)N[C@@H](CCCNC(=N)N)C(=O)N[C@@H](CCCCN)C(=O)N[C@@H](CCC(N)=O)C(=O)N1)C(C)C)C(=O)N[C@H](C(=O)N[C@H](C(=O)NCC(=O)NCC(=O)N[C@@H](CCCNC(=N)N)C(=O)N[C@@H](CCSC)C(=O)N[C@@H](CCCNC(=N)N)C(=O)N[C@@H](Cc1ccccc1)C(=O)O)C(C)C)[C@@H](C)O` (H-[X2]KKVRKQ[X1]GRVLRHSRITVGGRMRF-OH; staple (Z) 1-8), for which, in data set [1], the hemolysis at 100 microg/ml is < 5%. Moreover, the result in [4] and in data set [5] was Active. For the same compound, the result in [6] was inactive.

Consider H-FGRFFKKVRKQLGRVLRHSRITVGGRMRF-OH, for which the viability at 100 µg/mL in [7] was < 40%. In addition, the result in [4], in [5] and in data set [8] was Active. In [6], the result was inactive.

Consider H-GRVLRHSRITVGGRMRF-OH, for which the result in data set [6] was inactive.

Regarding H-KVRKQLGRVLRHSRITVGGRMRF-OH, the result in data set [6] was inactive.

As to H-QLGRVLRHSRITVGGRMRF-OH, the result in data set [6] was inactive.

In the case of H-RFFKKVRKQLGRVLRHSRITVGGRMRF-OH, the viability at 100 µg/mL in [7] was < 40%. The result in data set [4], in data set [5] and in data set [8] was Active. The outcome in [6] was inactive.

Take H-RHSRITVGGRMRF-OH: the outcome in [6] was inactive.

As to H-RKQLGRVLRHSRITVGGRMRF-OH, the outcome in data set [6] was inactive.

As for H-RRSRFGRFFKKVR-NH2, the result in data set [6] was inactive.

Take H-RRSRFGRFFKKVRKQ-NH2: the outcome in data set [6] was inactive.

As to H-RRSRFGRFFKKVRKQLG-NH2, the viability at 100 µg/mL in data set [7] is < 40%; in data set [9], < 40%; in data set [2] it was 80%; in [3], 80%. For the same compound, the result in data set [6] was inactive.

H-RRSRFGRFFKKVRKQLGRV-NH2: the viability at 100 µg/mL in [7] is < 40%; in data set [9] it was < 40%; in [2] it was 80%; in [3], 80%. In data set [6], the result was inactive.

As to H-RRSRFGRFFKKVRKQLGRVLRHSRITVGGRMRF-OH, the result in [6] was inactive.

H-SRFGRFFKKVRKQLGRVLRHSRITVGGRMRF-OH: the viability at 100 µg/mL in data set [7] is < 40%. The result in data set [4], in [5] and in data set [8] was Active. The result in data set [6] was inactive.

Take H-VLRHSRITVGGRMRF-OH: in data set [6], the result was inactive.
